Assay results from PubChem BioAssay AID2060613 (Molecular Pharmacology Branch, DTP, NCI, 2025).
Several values for one entry are separate records, joined by “and”; a condition that tells them apart may be missing. Identical values can stand only once.

Tested on: 233499-124-R-J3-PDC complex spheroid viability
Assay: Anticancer human tumor 233499-124-R-J3-PDC patient-derived colon adenocarcinoma cell line growth inhibition [CLK]
Details: for viability, T/C: stronger effect = lower value; active means viability on the fitted dose curve at most 10% of control; inactive means the rest
Method in brief: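 Multi-cell-type spheroids combined patient-derived tumor cells with HUVEC endothelial cells and human mesenchymal stem cells. Paired agents were dosed in half-log steps down from about clinical Cmax, or from 10 microM where Cmax was unknown.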

[1] = curve of first compound, second compound 0.0316 µM
[2] = curve of first compound, second compound 0.1 µM
[3] = curve of first compound, second compound 0.316 µM
[4] = curve of first compound, second compound 1 µM
[5] = curve of first compound, second compound 3.16 µM
[6] = curve of first compound, second compound 10 µM
[7] = second compound 0.0316 µM, first compound 0.0316 µM
[8] = second compound 0.0316 µM, first compound 0.1 µM
[9] = second compound 0.0316 µM, first compound 0.316 µM
[10] = second compound 0.0316 µM, first compound 1 µM
[11] = second compound 0.0316 µM, first compound 3.16 µM
[12] = second compound 0.0316 µM, first compound 10 µM
[13] = second compound 0.1 µM, first compound 0.0316 µM
[14] = second compound 0.1 µM, first compound 0.1 µM
[15] = second compound 0.1 µM, first compound 0.316 µM
[16] = second compound 0.1 µM, first compound 1 µM
[17] = second compound 0.1 µM, first compound 3.16 µM
[18] = second compound 0.1 µM, first compound 10 µM
[19] = second compound 0.316 µM, first compound 0.0316 µM
[20] = second compound 0.316 µM, first compound 0.1 µM
[21] = second compound 0.316 µM, first compound 0.316 µM
[22] = second compound 0.316 µM, first compound 1 µM
[23] = second compound 0.316 µM, first compound 3.16 µM
[24] = second compound 0.316 µM, first compound 10 µM
[25] = second compound 1 µM, first compound 0.0316 µM
[26] = second compound 1 µM, first compound 0.1 µM
[27] = second compound 1 µM, first compound 0.316 µM
[28] = second compound 1 µM, first compound 1 µM
[29] = second compound 1 µM, first compound 3.16 µM
[30] = second compound 1 µM, first compound 10 µM
[31] = second compound 3.16 µM, first compound 0.0316 µM
[32] = second compound 3.16 µM, first compound 0.1 µM
[33] = second compound 3.16 µM, first compound 0.316 µM
[34] = second compound 3.16 µM, first compound 1 µM
[35] = second compound 3.16 µM, first compound 3.16 µM
[36] = second compound 3.16 µM, first compound 10 µM
[37] = second compound 10 µM, first compound 0.0316 µM
[38] = second compound 10 µM, first compound 0.1 µM
[39] = second compound 10 µM, first compound 0.316 µM
[40] = second compound 10 µM, first compound 1 µM
[41] = second compound 10 µM, first compound 3.16 µM
[42] = second compound 10 µM, first compound 10 µM
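Further: spheroids exposed to the drug combinations for seven days.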
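Wherever viability, T/C is given: percent viability relative to DMSO vehicle control wells taken as 100%.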

O=c1[nH]cc(F)c(=O)[nH]1 + CN1CCN(c2cc(C(=O)Nc3cc4cc(-c5cnn(C)c5)ccc4cn3)ccn2)CC1
0.952 µM: IC50 [2]
0.844 µM: IC50 [3]
0.85 µM: IC50 [1]
inactive: viability, T/C [7] 93% | viability, T/C [8] 104% | viability, T/C [9] 90.8% | viability, T/C [10] 43.5% | viability, T/C [11] 28.6% | viability, T/C [12] 31.4% | viability, T/C [13] 99.8% | viability, T/C [14] 100% | viability, T/C [15] 96.8% | viability, T/C [16] 48% | viability, T/C [17] 28.8% | viability, T/C [18] 30.4% | viability, T/C [19] 96.3% | viability, T/C [20] 98.5% | viability, T/C [21] 96.5% | viability, T/C [22] 42% | viability, T/C [23] 24.6% | viability, T/C [24] 19.7%
< 0.0316 µM: IC50 [4] | IC50 [5] | IC50 [6]
active: viability, T/C [25] 1.35% | viability, T/C [26] 1.2% | viability, T/C [27] 0.92% | viability, T/C [28] 2.1% | viability, T/C [29] 0.59% | viability, T/C [30] 0.84% | viability, T/C [31] 0.5% | viability, T/C [32] 0.58% | viability, T/C [33] 1.18% | viability, T/C [34] 0.66% | viability, T/C [35] 0.53% | viability, T/C [36] 0.54% | viability, T/C [37] 0.37% | viability, T/C [38] 0.5% | viability, T/C [39] 1.31% | viability, T/C [40] 0.42% | viability, T/C [41] 0.41% | viability, T/C [42] 0.45%

CCCS(=O)(=O)Nc1ccc(F)c(C(=O)c2c[nH]c3ncc(-c4ccc(Cl)cc4)cc23)c1F + CNC(=O)c1ccc(Nc2nc(OC3CCCC3)c3c(-c4ccc5nc(C)oc5c4)c[nH]c3n2)c(OC)c1
> 10 µM: IC50 [1] | IC50 [2]
inactive: viability, T/C [7] 89.6% | viability, T/C [8] 96.5% | viability, T/C [9] 103% | viability, T/C [10] 102% | viability, T/C [11] 97.9% | viability, T/C [12] 64.9% | viability, T/C [13] 75.7% | viability, T/C [14] 86.8% | viability, T/C [15] 82.2% | viability, T/C [16] 86.8% | viability, T/C [17] 85.5% | viability, T/C [18] 50% | viability, T/C [19] 75.9% | viability, T/C [20] 87.4% | viability, T/C [21] 90.6% | viability, T/C [22] 90.3% | viability, T/C [23] 90.3% | viability, T/C [24] 43.4% | viability, T/C [25] 90.1% | viability, T/C [26] 90.5% | viability, T/C [27] 78.7% | viability, T/C [28] 85.3% | viability, T/C [29] 91% | viability, T/C [30] 18% | viability, T/C [31] 76.1% | viability, T/C [32] 90.1% | viability, T/C [33] 84.6% | viability, T/C [34] 83.6% | viability, T/C [35] 76.5% | viability, T/C [36] 11.9% | viability, T/C [37] 76.7% | viability, T/C [38] 78.4% | viability, T/C [39] 79.2% | viability, T/C [40] 81.3% | viability, T/C [41] 60.9% | viability, T/C [42] 14.6%
8.4 µM: IC50 [3]
5.07 µM: IC50 [5]
5.87 µM: IC50 [4]
4.15 µM: IC50 [6]

Cn1ncnc1[C@H]1c2n[nH]c(=O)c3cc(F)cc(c23)N[C@@H]1c1ccc(F)cc1 + CN1CCN(c2cc(C(=O)Nc3cc4cc(-c5cnn(C)c5)ccc4cn3)ccn2)CC1
> 0.1 µM: IC50 [1] | IC50 [2] | IC50 [3]
active: viability, T/C (second compound 1 µM, first compound 0.001 µM) 2.31% | viability, T/C (second compound 1 µM, first compound 0.00316 µM) 5.38% | viability, T/C (second compound 1 µM, first compound 0.01 µM) 1.23% | viability, T/C [25] 2.59% | viability, T/C [26] 0.76% | viability, T/C (second compound 3.16 µM, first compound 0.000316 µM) 0.59% | viability, T/C (second compound 3.16 µM, first compound 0.001 µM) 0.64% | viability, T/C (second compound 3.16 µM, first compound 0.00316 µM) 0.58% | viability, T/C (second compound 3.16 µM, first compound 0.01 µM) 0.53% | viability, T/C [31] 0.57% | viability, T/C [32] 0.46% | viability, T/C (second compound 10 µM, first compound 0.000316 µM) 0.41% | viability, T/C (second compound 10 µM, first compound 0.001 µM) 0.43% | viability, T/C (second compound 10 µM, first compound 0.00316 µM) 0.45% | viability, T/C (second compound 10 µM, first compound 0.01 µM) 0.44% | viability, T/C [37] 0.51% | viability, T/C [38] 0.56%
inactive: viability, T/C (second compound 0.0316 µM, first compound 0.000316 µM) 91.2% | viability, T/C (second compound 0.0316 µM, first compound 0.001 µM) 108% | viability, T/C (second compound 0.0316 µM, first compound 0.00316 µM) 100% | viability, T/C (second compound 0.0316 µM, first compound 0.01 µM) 110% | viability, T/C [7] 104% | viability, T/C [8] 92.7% | viability, T/C (second compound 0.1 µM, first compound 0.000316 µM) 100% | viability, T/C (second compound 0.1 µM, first compound 0.001 µM) 105% | viability, T/C (second compound 0.1 µM, first compound 0.00316 µM) 89.5% | viability, T/C (second compound 0.1 µM, first compound 0.01 µM) 97.8% | viability, T/C [13] 92.1% | viability, T/C [14] 94.4% | viability, T/C (second compound 0.316 µM, first compound 0.000316 µM) 85.5% | viability, T/C (second compound 0.316 µM, first compound 0.001 µM) 103% | viability, T/C (second compound 0.316 µM, first compound 0.00316 µM) 101% | viability, T/C (second compound 0.316 µM, first compound 0.01 µM) 89.6% | viability, T/C [19] 92.7% | viability, T/C [20] 101% | viability, T/C (second compound 1 µM, first compound 0.000316 µM) 19.1%
< 0.000316 µM: IC50 [4] | IC50 [5] | IC50 [6]

COC1C=CCC(C)C(C)S(=O)(=O)NC(=O)c2ccc3c(c2)N(CC2CCC21)CC1(CCCc2cc(Cl)ccc21)CO3 (stereo unspecified)
active: viability, T/C (compound 10 µM) 5.33% and 8.83%
inactive: viability, T/C (compound 0.0316 µM) 101% and 96.4% | viability, T/C (compound 0.1 µM) 86.9% and 97.1% | viability, T/C (compound 0.316 µM) 74% and 90.9% | viability, T/C (compound 1 µM) 80.4% and 83.1% | viability, T/C (compound 3.16 µM) 58.9% and 76%
3.63 µM and 4.8 µM: IC50 (curve of compound)

CC(CO)NC(=O)c1cc(-c2ccc(Cl)cc2)nn(-c2cnn(C)c2)c1=O (stereo unspecified)
inactive: viability, T/C (compound 0.0316 µM) 103% and 94.8% | viability, T/C (compound 0.1 µM) 95.2% and 90.1% | viability, T/C (compound 0.316 µM) 96.3% and 95.6% | viability, T/C (compound 1 µM) 96.8% and 92.9% | viability, T/C (compound 3.16 µM) 92.7% and 96% | viability, T/C (compound 10 µM) 89.7% and 83.2%
> 10 µM: IC50 (curve of compound)

COc1cccc2c1C(=O)c1c(O)c3c(c(O)c1C2=O)CC(O)(C(=O)CO)CC3OC1CC(N)C(O)C(C)O1 (stereo unspecified)
inactive: viability, T/C (compound 0.0316 µM) 92.5% and 101% | viability, T/C (compound 0.1 µM) 99% and 94.5% | viability, T/C (compound 0.316 µM) 81.5% and 67.5% | viability, T/C (compound 1 µM) 72.2% and 48.1% | viability, T/C (compound 3.16 µM) 45.6% and 21.7% | viability, T/C (compound 10 µM) 17.3% and 17.5%
2.61 µM and 0.781 µM: IC50 (curve of compound)

COc1c(OCCCN2CCOCC2)ccc2c3n(c(=NC(=O)c4cnc(N)nc4)nc12)CCN3
active: viability, T/C (compound 1 µM) 3.62%
0.141 µM: IC50 (curve of compound)
inactive: viability, T/C (compound 0.00316 µM) 83% | viability, T/C (compound 0.01 µM) 86% | viability, T/C (compound 0.0316 µM) 88.8% | viability, T/C (compound 0.1 µM) 49.3% | viability, T/C (compound 0.316 µM) 34.4%

COC1C=CCC(C)C(C)S(=O)(=O)NC(=O)c2ccc3c(c2)N(CC2CCC21)CC1(CCCc2cc(Cl)ccc21)CO3 (stereo unspecified) + CN1CCN(c2cc(C(=O)Nc3cc4cc(-c5cnn(C)c5)ccc4cn3)ccn2)CC1
inactive: viability, T/C [7] 93.9% | viability, T/C [8] 98% | viability, T/C [9] 94.6% | viability, T/C [10] 80.2% | viability, T/C [11] 60.4% | viability, T/C [13] 98.8% | viability, T/C [14] 98.6% | viability, T/C [15] 90.5% | viability, T/C [16] 79.7% | viability, T/C [17] 57.3% | viability, T/C [19] 91.5% | viability, T/C [20] 80% | viability, T/C [21] 46.5% | viability, T/C [22] 13.9% | viability, T/C [23] 30.5% | viability, T/C [24] 3.11%
< 0.0316 µM: IC50 [4] | IC50 [5] | IC50 [6]
0.27 µM: IC50 [3]
active: viability, T/C [12] 7.46% | viability, T/C [18] 7.28% | viability, T/C [25] 0.62% | viability, T/C [26] 1.27% | viability, T/C [27] 0.44% | viability, T/C [28] 0.32% | viability, T/C [29] 0.78% | viability, T/C [30] 0.58% | viability, T/C [31] 0.45% | viability, T/C [32] 0.45% | viability, T/C [33] 0.5% | viability, T/C [34] 0.44% | viability, T/C [35] 0.43% | viability, T/C [36] 0.31% | viability, T/C [37] 0.31% | viability, T/C [38] 0.28% | viability, T/C [39] 0.31% | viability, T/C [40] 0.3% | viability, T/C [41] 0.29% | viability, T/C [42] 0.22%
3.89 µM: IC50 [1]
3.65 µM: IC50 [2]
